Source: US11834679B2, “Method for producing cardiomyocytes” (KATAOKA CORPORATION, priority 2018, dated 2023)

System: human fibroblasts
Assay: Direct induction from human fibroblasts to cardiomyocytes (microscopic observation of morphology and pulsation)
Type: cell-based
Description: The human fibroblasts used as the material were purchased from DS Pharma Biomedical Co., Ltd. The fibroblasts are derived from human skin. The human fibroblasts were seeded in 8×10^4 portions in 35-mm dishes coated with gelatin (Cat #: 190-15805, manufactured by Wako Pure Chemical Co.) and cultured in DMEM high glucose medium (manufactured by Gibco) supplemented with 10% fetal bovine serum (Fetal bovine serum; FBS), 100 U/mL penicillin, and 100 μg/mL streptomycin for 2 days at 37° C. under 5% CO2 conditions (80-90% or more confluent). DMEM denotes Dulbecco's Modified Eagle Medium (Dulbecco's Modified Eagle Medium). The medium of dishes of the human fibroblasts described above was replaced with a medium of DMEM (High Glucose with L-Glutamine Phenol Red, and Sodium Pyruvate) (manufactured by Gibco) having 20% fetal bovine serum (FBS), 2% B27-supplement (manufactured by Gibco), 1% N2 (manufactured by Gibco), non-essential amino acids (NEAA: manufactured by Gibco), β-mercaptoethanol (manufactured by Nacalai Tesque; final concentration of 0.1 mmol/L), 2-phospho ascorbic acid (manufactured by Sigma-Aldrich; final concentration of 50 μg/mL), 100 U/mL penicillin, 100 μg/mL streptomycin, and low molecular weight compounds described below. […] This was assessed by observing cell clumps that contract spontaneously and periodically under a microscope. […]

## O=C(NOC[C@H](O)CO)c1ccc(F)c(F)c1Nc1ccc(I)cc1F [Ex. A, PD0325901]
Tables 1-2, FIGS. 1-6, culture day 7 to 17
  appearance of spontaneously contracting (myocardial) cell clumps: low in frequency
Human skin fibroblasts cultured with the compound combination, grades ⊚, ◯, Δ, X not defined
  Induction efficiency (Morphology, pulsation): Δ
